System: bone marrow-derived dendritic cells
Experiment: Migration filter chemotaxis assay (chemotaxis index)
Assay type: cell-based
Experimental: The formyl peptide fMLP (formyl-Met-Leu-Phe) chemoattractant has been studied in addition to the protein chemokine MIP-3α. The formyl peptide is a bacterial byproduct that attracts DC's to sites of infection. It has been reported in the literature to be attractive for iDC's in mice and humans. […] For these experiments, DC's were placed on the top of a migration filter containing 5-μm pores with a reservoir of fMLP (or MIP-3α) at the indicated concentration on the other side. After 90 minutes, the number of cells migrating in response to the chemoattractants was counted and compared to controls. In FIG. 18, CI is the chemotaxis index, defined as (number of migrated cells in chemokine)/(number of migrated cells in control without chemokine).
The literature reports CI up to ≈5 max for bone-marrow-derived dendritic cells (BMDC's), but this experiment was carried out on late-stage DC cultures (DC's are starting to mature on Day 7) and the culture was not purified, thus a significant contamination with neutrophils is likely present; thus the real CI is possibly higher.

Row | Substance | maximal potency of attraction of dendritic cells (5-μm pore migration filter, 90 minutes, Day 7 unpurified cultures, high concentrations of fMLP) | concentration giving maximal migration (previous experiments, in line with literature reports)
1 | formyl-Met-Leu-Phe [fMLP] | comparable to MIP-3α | 
2 | MIP-3α: protein chemokine |  | 1 µg/mL
